In patent US20100130408A1, “USE OF MODIFIED CYCLOSPORINS” (priority 2006, published 2010):

Columns and labels:
TWNT-4 cells = assay: gene expression using real time RT-PCR; format: cell-based, human; details: 0.5 μM
Protocol: Analysis of gene expression using real time RT-PCR: Total RNA is prepared from TWNT-4 cells with Trizol reagent (Invitrogen, Carlsbad, Calif., USA), which are maintained in either the presence or absence of NIM811 in 10% FCS for 24 h. cDNA is synthesized from […] RNA with GeneAmp™ RNA PCR (Applied Biosystems, Branchburg, N.J., USA) using random hexamers. Real-time PCR is performed using LightCycler-FastStart DNA Master SYBR Green 1 (Roche, Tokyo, Japan) as described in Nakamuta, et al, Int J. Mol Med (2005) 16(4):631-635. A reaction mixture (20 μl) is used containing LightCycler-FastStart DNA Master SYBR Green 1, 4 mM MgCl2, 0.5 μM of the upstream and downstream PCR primers, and […] of the first strand cDNA as a template. To control for variations in the reactions, all PCRs are normalized against glyceraldehyde-3-phosphate dehydrogenase (GAPDH) expression. The primers which may be used are as follows: 5′-[…]-3′ (forward primer) (SEQ ID NO. 1) and 5′-[…]-3′ (reverse primer)(SEQ ID NO. 2) for human type I collagen a1 chain (GenBank™ accession number NM-000088) (21); 5′-[…]-3′ (forward primer)(SEQ ID NO. 3) and 5′-[…]-3′ (reverse primer) for human a-SMA (GenBank™ accession number […]); 5′-[…]-3′ (forward primer) and 5′-[…]-3′ (reverse primer) for MMP-1 (GenBank™ accession number NM002421); 5′-[…]-3′ (forward primer) and 5′-[…]-3′ (reverse primer)(SEQ ID NO. 4) for TIMP-1 (GenBank™ accession number NM003254); 5′-[…]-3′ (forward primer)(SEQ ID NO. 5) and 5′-[…]-3′ (reverse primer)(SEQ ID NO. 6) for Smad7 (Quan, et al, J Biol Chem (2005) 80:8079-8085); 5′-[…]-3′ (forward primer)(SEQ ID NO. 7) and 5′-[…]-3′ (reverse primer)(SEQ ID NO. 8) for transforming growth factor □ receptor I (TGFβRI) (Woszcyk et al, Med Sci Monit (2004) 10:C33-C37)).

HCV = details: Watashi et al., Hepatology (2003); cited from earlier work
cyclophilin A = cyclophilin A (Homo sapiens, UniProt P62937); details: Waldmeier et al, Mol Pharmacol (2002); cited from earlier work
[1] = system: cultured mouse hepatocytes; details: Kon et al, Hepatology (2004); cited from earlier work
HSCs = assay: BrdU incorporation (cell proliferation ELISA); format: cell-based, rat
Protocol: A. In vitro Cell culture: HSCs are isolated from the liver of male Wistar rats by sequential in situ perfusion with collagenase and digestion with pronase, followed by centrifugation in a double-layered (17%/11.5%) metrizamide solution (Sigma. Chemical, St. Louis, Mo.), as described in Kato, et al, J. Hepatol (1999) 31:91-99. HSCs are cultured in Dulbecco's modified Eagle's medium (DMEM) with 10% fetal calf serum (FCS). Experiments are performed on cells between the third and fourth serial passages. To measure […] matrix metalloproteinase (MMP-1) and tissue inhibitor of matrix metalloproteinase (TIMP-1), TWNT-4 cells which is a human cell line derived from HSCs as produced according to Shibata, et al, Cell Transplant (2003) 12:499-507 is used for evaluating the effects of Fasudil on MMP-1 and TIMP-1. TWNT-4 cells are cultured in DMEM with 10% FCS as reported previously (Id). NIM811 (Novartis Pharma AG, Basel, Switzerland) is dissolved in DMEM and added to cultures. […]
Analysis of BrdU incorporation: HSC incorporation of BrdU is measured using a cell proliferation ELISA (Roche Diagnostics GmbH, Mannheim, Germany) as described in Higashi, et al, J. Lab Clin Med (2005) 145(6):316-322. […] BrdU incorporation is estimated by measuring the […].

Cell viability of HSCs = format: cell-based; details: male, Wistar, rat, primary hepatic stellate cells (HSCs), 2 μM NIM811, serum-free conditions
Protocol: A. In vitro Cell culture: HSCs are isolated from the liver of male Wistar rats by sequential in situ perfusion with collagenase and digestion with pronase, followed by centrifugation in a double-layered (17%/11.5%) metrizamide solution (Sigma. Chemical, St. Louis, Mo.), as described in Kato, et al, J. Hepatol (1999) 31:91-99. HSCs are cultured in Dulbecco's modified Eagle's medium (DMEM) with 10% fetal calf serum (FCS). Experiments are performed on cells between the third and fourth serial passages. To measure […] matrix metalloproteinase (MMP-1) and tissue inhibitor of matrix metalloproteinase (TIMP-1), TWNT-4 cells which is a human cell line derived from HSCs as produced according to Shibata, et al, Cell Transplant (2003) 12:499-507 is used for evaluating the effects of Fasudil on MMP-1 and TIMP-1. TWNT-4 cells are cultured in DMEM with 10% FCS as reported previously (Id). NIM811 (Novartis Pharma AG, Basel, Switzerland) is dissolved in DMEM and added to cultures. Cell viability of HSCs is more than 90% under serum-free conditions for 24 h in the presence of 2 μM NIM811.

TGFβ Signaling Pathways = assay: Western blot analysis for phospho- and nonphospho-Smad2 and Smad3; format: cell-based, human; details: 0.5 μM
Protocol: Western blot analysis for phospho- and nonphospho-Smad2 and Smad3: Western blot analysis is performed as described above for MAPK analysis and probed with a primary antibody for Smad2, phospho-Smad2 (Thr/Tyr), Smad3, or phospho-Smad3 (Thr/Tyr) (Cell Signaling Technology, Danvers, Mass.). For comparison, the ratios of phosphorylated Smad2 and Smad3 to nonphosphorylated Smad2 and Smad3, respectively, are calculated from densitometric data.

cyclophilin A, sequence (P62937 whole entry, species assumed): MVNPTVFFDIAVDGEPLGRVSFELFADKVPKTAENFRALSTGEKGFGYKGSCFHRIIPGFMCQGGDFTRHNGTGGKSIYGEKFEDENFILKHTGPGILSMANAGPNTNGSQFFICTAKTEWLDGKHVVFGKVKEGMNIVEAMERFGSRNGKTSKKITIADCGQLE

C/C=C/C[C@@H](C)[C@@H](O)[C@H]1C(=O)N[C@@H](CC)C(=O)N(C)CC(=O)N(C)[C@@H]([C@@H](C)CC)C(=O)N[C@@H](C(C)C)C(=O)N(C)[C@@H](CC(C)C)C(=O)N[C@@H](C)C(=O)N[C@H](C)C(=O)N(C)[C@@H](CC(C)C)C(=O)N(C)[C@@H](CC(C)C)C(=O)N(C)[C@@H](C(C)C)C(=O)N1C [NIM811]
enhancement of expression of Smad7 (TWNT-4 cells): ~2 fold | expression of TIMP-1 (mRNA) (TWNT-4 cells): did not change | increase of expression of MMP-1 (mRNA) (TWNT-4 cells): ~2 fold | reduction of expression of type I collagen (mRNA) (TWNT-4 cells): roughly 30% | suppression of TGFβRI expression (TWNT-4 cells): ~50% | replication of HCV in vitro (HCV): suppresses replication of HCV replication in vitro | binding to cyclophilin A (cyclophilin A): does not bind to cyclophilin A | acetaminophen-induced necrosis and apoptosis [1]: prevented acetaminophen-induced necrosis and apoptosis | cell growth of HSCs (HSCs): suppresses cell growth of HSCs in a concentration-dependent manner | decrease of new DNA synthesis (BrdU incorporation) (HSCs; 2.0 μM): ~30% | viability at 24 h, 2 µM (Cell viability of HSCs): > 90% | suppression of phosphorylation of Smad2 (TGFβ Signaling Pathways): ~70% | suppression of phosphorylation of Smad3 (TGFβ Signaling Pathways): ~60%
